Experiments:
Details in all cases: incubation time: 72 h
BT-474 [1] = test: normalised viability (% of control), CellTiter-Blue; higher = more viable cells (about 100 = DMSO control)
In short: (§1)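 Plates were quality-checked by Z'-factor and normalised to vehicle (100) and a positive kill control (0). The underlying assay incubated breast cancer cell lines for 72 h on 384-well plates with compound, then added 2.5 µl CellTiter-Blue for 2 h at 37 °C and read at 560/590 nm. The value is normalised viability at a single listed concentration of the series.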

BT-549 [2] = test: as above
In short: as §1

CAL-120 = test: as above
In short: as §1

CAL-148 [3] = test: as above
In short: as §1

DU-4475 [4] = test: as above
In short: as §1

HCC1143 = test: as above
In short: as §1

Hs578T = test: as above
In short: as §1

MDA-MB-231 = test: as above
In short: as §1

MDA-MB-436 [5] = test: as above
In short: as §1

MDA-MB-453 = test: as above
In short: as §1

SK-BR-3 [6] = test: as above
In short: as §1

BT-474 [7] = test: drug sensitivity score (DSS), CellTiter-Blue viability (DSS (AUC-based score)); higher = stronger viability inhibition; extreme values may be limits of the assay
In short: (§2)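 A 72 h incubation followed seeding of breast cancer cell lines (20 µl suspension) into 384-well plates holding compound in a 5- or 9-concentration series. CellTiter-Blue, 2.5 µl per well, was incubated 2 h at 37 °C, and fluorescence was measured at 560/590 nm. Normalisation on every plate used 0.1 % DMSO and a positive kill control. From the fitted dose-response curve, the area under the curve was taken as the drug sensitivity score.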

BT-549 [8] = test: as above
In short: as §2

CAL-148 [9] = test: as above
In short: as §2

CAL-51 = test: as above
In short: as §2

DU-4475 [10] = test: as above
In short: as §2

MDA-MB-436 [11] = test: as above
In short: as §2

MFM-223 = test: as above
In short: as §2

SK-BR-3 [12] = test: as above
In short: as §2

`CCC1=C[C@@H]2CN(C1)Cc1c([nH]c3ccccc13)[C@@](C(=O)OC)(c1cc3c(cc1OC)N(C)[C@H]1[C@@](O)(C(=O)OC)[C@H](OC(C)=O)[C@]4(CC)C=CCN5CC[C@]31[C@@H]54)C2` [Vinorelbine] was tested, and the normalised viability (BT-474 [1]; 10 nM) was 108%, the normalised viability (BT-474 [1]; 1000 nM) was 44.4% and the normalised viability (BT-474 [1]; 10000 nM) was 58.1%. The normalised viability (BT-549 [2]; 10 nM) was 94.9%, the normalised viability (BT-549 [2]; 1000 nM) was 15.8% and the normalised viability (BT-549 [2]; 10000 nM) was 11.4%. For the same compound, the normalised viability (CAL-120; 10 nM) was 84.1%, the normalised viability (CAL-120; 1000 nM) was 24.3% and the normalised viability (CAL-120; 10000 nM) was 25.4%. For the same compound, the normalised viability (CAL-148 [3]; 3 nM) was 106%, the normalised viability (CAL-148 [3]; 30 nM) was 91.4% and the normalised viability (CAL-148 [3]; 100 nM) was 18.7%. The normalised viability (DU-4475 [4]; 3 nM) was 96.7%, the normalised viability (DU-4475 [4]; 30 nM) was 91.3% and the normalised viability (DU-4475 [4]; 100 nM) was 79.4%. It also gave a normalised viability (HCC1143; 10 nM) of 93.9%, a normalised viability (HCC1143; 1000 nM) of 45.8% and a normalised viability (HCC1143; 10000 nM) of 38.7%. It also gave a normalised viability (Hs578T; 10 nM) of 93.7%, a normalised viability (Hs578T; 1000 nM) of 16.1% and a normalised viability (Hs578T; 10000 nM) of 15.9%. For the same compound, the normalised viability (MDA-MB-231; 10 nM) was 109%, the normalised viability (MDA-MB-231; 1000 nM) was 16.7% and the normalised viability (MDA-MB-231; 10000 nM) was 12.7%. It also gave a normalised viability (MDA-MB-436 [5]; 10 nM) of 109%, a normalised viability (MDA-MB-436 [5]; 1000 nM) of 41.4% and a normalised viability (MDA-MB-436 [5]; 10000 nM) of 34.6%. It also gave a normalised viability (MDA-MB-453; 3 nM) of 110%, a normalised viability (MDA-MB-453; 30 nM) of 43% and a normalised viability (MDA-MB-453; 100 nM) of 25.1%. For the same compound, the normalised viability (SK-BR-3 [6]; 10 nM) was 99.4%, the normalised viability (SK-BR-3 [6]; 1000 nM) was 17.7% and the normalised viability (SK-BR-3 [6]; 10000 nM) was 18.3%. The drug sensitivity score (BT-474 [7]) was 16.1, the drug sensitivity score (BT-549 [8]) was 25.6 and the drug sensitivity score (CAL-148 [9]) was 22.5. It also gave a drug sensitivity score (CAL-51) of 19.6, a drug sensitivity score (DU-4475 [10]) of 15.8 and a drug sensitivity score (MDA-MB-436 [11]) of 16.5. For the same compound, the drug sensitivity score (MFM-223) was 18.4 and the drug sensitivity score (SK-BR-3 [12]) was 26.

With `CCC1(c2ccc(N)cc2)CCC(=O)NC1=O` (configuration not stated) [Aminoglutethimide] the normalised viability (BT-474 [1]; 10 nM) was 107%, the normalised viability (BT-474 [1]; 1000 nM) was 104% and the normalised viability (BT-474 [1]; 10000 nM) was 105%. It also gave a normalised viability (BT-549 [2]; 10 nM) of 84.2%, a normalised viability (BT-549 [2]; 1000 nM) of 101% and a normalised viability (BT-549 [2]; 10000 nM) of 76.4%. It also gave a normalised viability (CAL-120; 10 nM) of 111%, a normalised viability (CAL-120; 1000 nM) of 116% and a normalised viability (CAL-120; 10000 nM) of 108%. The normalised viability (CAL-148 [3]; 3 nM) was 108%, the normalised viability (CAL-148 [3]; 30 nM) was 105% and the normalised viability (CAL-148 [3]; 100 nM) was 106%. For the same compound, the normalised viability (DU-4475 [4]; 3 nM) was 107%, the normalised viability (DU-4475 [4]; 30 nM) was 86.9% and the normalised viability (DU-4475 [4]; 100 nM) was 85.2%. For the same compound, the normalised viability (HCC1143; 10 nM) was 124%, the normalised viability (HCC1143; 1000 nM) was 115% and the normalised viability (HCC1143; 10000 nM) was 122%. It also gave a normalised viability (Hs578T; 10 nM) of 95.8%, a normalised viability (Hs578T; 1000 nM) of 113% and a normalised viability (Hs578T; 10000 nM) of 89.8%. The normalised viability (MDA-MB-231; 10 nM) was 86.9%, the normalised viability (MDA-MB-231; 1000 nM) was 90.2% and the normalised viability (MDA-MB-231; 10000 nM) was 106%. The normalised viability (MDA-MB-436 [5]; 10 nM) was 95.9%, the normalised viability (MDA-MB-436 [5]; 1000 nM) was 112% and the normalised viability (MDA-MB-436 [5]; 10000 nM) was 91.6%. For the same compound, the normalised viability (MDA-MB-453; 3 nM) was 94.9%, the normalised viability (MDA-MB-453; 30 nM) was 93% and the normalised viability (MDA-MB-453; 100 nM) was 89.2%. The normalised viability (SK-BR-3 [6]; 10 nM) was 99.1%, the normalised viability (SK-BR-3 [6]; 1000 nM) was 100% and the normalised viability (SK-BR-3 [6]; 10000 nM) was 109%. It also gave a drug sensitivity score (BT-474 [7]) of 0, a drug sensitivity score (BT-549 [8]) of 0 and a drug sensitivity score (CAL-148 [9]) of 0. It also gave a drug sensitivity score (CAL-51) of 0, a drug sensitivity score (DU-4475 [10]) of 0 and a drug sensitivity score (MDA-MB-436 [11]) of 0. It also gave a drug sensitivity score (MFM-223) of 0 and a drug sensitivity score (SK-BR-3 [12]) of 0.
